Several values for one entry are separate records, joined by “and”; a condition that tells them apart may be missing. Identical values can stand only once.

In test [1] the target is mTOR enzyme (mTOR(1360-2549)+GBL) (Homo sapiens, UniProt P42345). Kind of test: In vitro mTOR kinase assay (TR-FRET). It is filed as biochemical. The conditions noted are these: 0.25 nM mTOR+GBL, 8 uM ATP; values tied to compounds by order of Table 1; 'x or y' = two alternative values for separated diastereomers of unassigned stereochemistry; read-out: activity level (Ki) in the mTOR kinase assay. The source says: a. In Vitro mTOR Kinase Assay
The reaction is stopped by an addition of a Terbium-labeled phospho-specific antibody, e.g., Tb-labeled anti-p4E-BP1 T37/T46, (Invitrogen, product #PR8835A), EDTA, and TR-FRET buffer solution (Invitrogen, Product #PR3756B). Product formation is detected by way of time-resolved fluorescence resonance energy transfer (TR-FRET), which occurs when the phosphorylated substrate and labeled antibody are in close proximity due to phospho-specific binding. Enzymatic activity is measured as an increase in TR-FRET signal using a Perkin Elmer Envision plate reader.
Compound activity is tested in 10 point dose curves starting at the highest final concentration of 10 uM. They are serially diluted in 100% DMSO prior to further dilution with assay buffer. […] 8 μL of solution containing 2 nM Tb-anti-p4E-BP1 antibody & 10 mM EDTA diluted TR-FRET buffer is then added and incubated for 30 minutes to stop the reaction. The plate is scanned with the Envision plate reader. Ki values are calculated in Assay Explorer using the Morrison ATP-competitive tight binding equation for Ki apparent determination.
A general note: TR-FRET usually uses a lanthanide donor and a delayed reading to cut background.

The next test has as its system PC3 cells. As to the kind of experiment: In vitro cell proliferation assay. It is filed as cell-based, human. To be noted: values tied to compounds by order of Table 1. On the procedure:
c. In Vitro Cell Proliferation Assay Efficacy of Formula I compounds were measured by a cell proliferation assay employing the following protocol: 1. An aliquot of 20 μl of cell culture containing about 10^3 cells (PC3 or MDAMB361.1) in medium was deposited in each well of a 384-well, opaque-walled plate. 2. Control wells were prepared containing medium and without cells; Cells were allowed to settle overnight. 3. The compound was added to the experimental wells and incubated for 3 days. 4. The plates were equilibrated to room temperature for approximately 30 minutes. 5. A volume of CellTiter-Glo Reagent equal to the volume of cell culture medium present in each well was added. […] The contents were mixed for 2 minutes on an orbital shaker to induce cell lysis. 7. The plate was incubated at room temperature for 20 minutes to stabilize the luminescence signal. 8. Luminescence was recorded and reported in graphs as RLU=relative luminescence units. Alternatively, cells were seeded at optimal density in a 96 well plate and incubated for 4 days in the presence of test compound. Alamar BlueTM was subsequently added to the assay medium, and cells were incubated for 6 h before reading at 544 nm excitation, 590 nm emission. EC50 values were calculated using a sigmoidal dose response curve fit.

The mark [2] stands for this setting: Homo sapiens, PC-3, with PC3 cells.

mTOR enzyme (mTOR(1360-2549)+GBL), sequence (P42345 1360-2549, species assumed): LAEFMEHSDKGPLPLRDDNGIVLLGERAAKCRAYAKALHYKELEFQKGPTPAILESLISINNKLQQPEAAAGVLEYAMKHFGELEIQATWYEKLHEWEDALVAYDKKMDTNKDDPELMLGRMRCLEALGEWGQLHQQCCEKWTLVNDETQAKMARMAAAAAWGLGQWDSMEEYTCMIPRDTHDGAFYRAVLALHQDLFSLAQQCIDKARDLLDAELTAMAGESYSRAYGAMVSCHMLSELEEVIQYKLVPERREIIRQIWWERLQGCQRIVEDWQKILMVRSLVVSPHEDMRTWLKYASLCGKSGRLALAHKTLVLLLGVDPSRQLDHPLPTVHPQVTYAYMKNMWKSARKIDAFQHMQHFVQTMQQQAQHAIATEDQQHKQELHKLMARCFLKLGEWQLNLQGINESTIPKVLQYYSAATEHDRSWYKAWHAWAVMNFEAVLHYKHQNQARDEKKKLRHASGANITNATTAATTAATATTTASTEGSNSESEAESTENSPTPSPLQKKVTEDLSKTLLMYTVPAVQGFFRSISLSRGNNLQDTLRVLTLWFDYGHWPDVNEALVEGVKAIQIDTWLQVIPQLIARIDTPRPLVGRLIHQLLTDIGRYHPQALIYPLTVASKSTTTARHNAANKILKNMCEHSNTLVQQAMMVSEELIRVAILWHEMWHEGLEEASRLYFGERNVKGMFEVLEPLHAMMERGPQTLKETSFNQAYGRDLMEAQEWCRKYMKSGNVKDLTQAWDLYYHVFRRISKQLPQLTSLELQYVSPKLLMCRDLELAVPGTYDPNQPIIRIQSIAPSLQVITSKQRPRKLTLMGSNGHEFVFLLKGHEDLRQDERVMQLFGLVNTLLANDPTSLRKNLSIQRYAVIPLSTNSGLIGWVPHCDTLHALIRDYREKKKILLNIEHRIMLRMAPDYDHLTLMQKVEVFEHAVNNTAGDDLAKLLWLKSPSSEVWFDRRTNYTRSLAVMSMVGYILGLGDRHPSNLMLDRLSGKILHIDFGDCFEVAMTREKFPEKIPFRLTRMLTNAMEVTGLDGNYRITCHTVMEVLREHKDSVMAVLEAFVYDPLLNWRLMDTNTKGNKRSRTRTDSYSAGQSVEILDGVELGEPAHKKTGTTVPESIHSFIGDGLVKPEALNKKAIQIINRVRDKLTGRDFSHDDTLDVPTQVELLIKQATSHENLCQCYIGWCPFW
mTOR enzyme (mTOR(1360-2549)+GBL), sequence (Q9BVC4 whole entry partner, species assumed): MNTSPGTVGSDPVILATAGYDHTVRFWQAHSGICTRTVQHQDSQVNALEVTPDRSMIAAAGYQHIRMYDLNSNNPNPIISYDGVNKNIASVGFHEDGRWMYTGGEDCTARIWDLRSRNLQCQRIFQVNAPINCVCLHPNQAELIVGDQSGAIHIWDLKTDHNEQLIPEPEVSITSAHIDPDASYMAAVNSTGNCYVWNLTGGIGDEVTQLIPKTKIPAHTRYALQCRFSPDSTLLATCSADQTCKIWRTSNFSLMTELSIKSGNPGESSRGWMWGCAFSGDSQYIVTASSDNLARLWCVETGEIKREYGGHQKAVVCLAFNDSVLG

In general, Ki refers to a measure of affinity in units of concentration, obtained from inhibition or displacement. What is called EC50 is the midpoint of the concentration-response curve. With `CC1(C)OCc2c(N3C[C@H]4CC[C@@H](C3)O4)nc(-c3cnc(N)nc3)nc21` [Example 107, 5-(4-((1R,5S)-8-oxa-3-azabicyclo[3.2.1]octan-3-yl)-7,7-dimethyl-5,7-dihydrofuro[3,4-d]pyrimidin-2-yl)pyrimidin-2-amine], the Ki in test [1] was 10 nM. Further, the EC50 in the test with PC3 cells (setting [2]) was 231 nM.
The matching figures for `C[C@H]1COCCN1c1nc(-c2ccc3c(N)noc3c2)nc2c1COC2(C)C` [Example 120, (S)-6-(7,7-dimethyl-4-(3-methylmorpholino)-5,7-dihydrofuro[3,4-d]pyrimidin-2-yl)benzo[d]isoxazol-3-amine]: 24 nM and 39 nM.
The matching figures for `CC1(C)OCc2c(N3C[C@H]4C[C@@H]3CO4)nc(-c3cnc(N)nc3)nc21` [Example 105, 5-(4-((1R,4R)-2-oxa-5-azabicyclo[2.2.1]heptan-5-yl)-7,7-dimethyl-5,7-dihydrofuro[3,4-d]pyrimidin-2-yl)pyrimidin-2-amine]: 88 nM and 17 nM.
For `CCNC(=O)Nc1ccc(-c2nc(N3CCOC[C@@H]3C)c3c(n2)[C@](C)(CCN2CCC2)OC3)cc1` [Example 79 er (S), 1-(4-((S)-7-(2-(azetidin-1-yl)ethyl)-7-methyl-4-((S)-3-methylmorpholino)-5,7-dihydrofuro[3,4-d]pyrimidin-2-yl)phenyl)-3-ethylurea] the same measures were 31 nM and 774 nM.
`C[C@H]1COCCN1c1nc(-c2ccc(NC(=O)NCCO)cc2)nc2c1CCC1(CC1)O2` [Example 65, (S)-1-(2-hydroxyethyl)-3-(4-(4′-(3-methylmorpholino)-5′,6′-dihydrospiro[cyclopropane-1,7′-pyrano[2,3-d]pyrimidine]-2′-yl)phenyl)urea]: the inhibition constant Ki in test [1] amounted to 0.4 nM. The compound further registered an EC50 in the test on PC3 cells (setting [2]) of 19 nM.
For `CCNC(=O)Nc1ccc(-c2nc(N3CCOC[C@@H]3C)c3c(n2)C(C)(CCn2ccnc2)OC3)cc1` (single isomer, unassigned) [Example 80 es (R)] the same measures were 9 nM and 454 nM.
With `C[C@H]1COCCN1c1nc(-c2ccc(NC(=O)NC3COC3)cc2)nc2c1CCCO2` [Example 32, (S)-1-(4-(4-(3-methylmorpholino)-6,7-dihydro-5H-pyrano[2,3-d]pyrimidin-2-yl)phenyl)-3-(oxetan-3-yl)urea], the Ki in test [1] was 4 nM. Also, in the test with PC3 cells (setting [2]), a half-maximal response (EC50) required 325 nM.
The matching figures for `CC1(C)OCc2c(N3CCOCC3)nc(-c3ccc4onc(N)c4c3)nc21` [Example 117, 5-(7,7-dimethyl-4-morpholino-5,7-dihydrofuro[3,4-d]pyrimidin-2-yl)benzo[d]isoxazol-3-amine]: 567 nM and 1200 nM.
The matching figures for `Cn1ccc(NC(=O)Nc2ccc(-c3nc4c(c(N5CCOCC5)n3)CCC3(CC3)O4)cc2)n1` [Example 44, 1-(1-methyl-1H-pyrazol-3-yl)-3-(4-(4′-morpholino-5′,6′-dihydrospiro[cyclopropane-1,7′-pyrano[2,3-d]pyrimidine]-2′-yl)phenyl)urea]: 2 nM and 329 nM.
Regarding `CCNC(=O)Nc1ccc(-c2nc(N3CCOC[C@@H]3C)c3c(n2)[C@@](C)(CCN(C)CC)OC3)cc1` [Example 78 eq (R), 1-ethyl-3-(4-((R)-7-(2-(ethyl(methyl)amino)ethyl)-7-methyl-4-((S)-3-methylmorpholino)-5,7-dihydrofuro[3,4-d]pyrimidin-2-yl)phenyl)urea], in test [1], the Ki was found to be 47 nM. Moreover, the EC50 in the test on PC3 cells (with PC3 cells) was found to be 161 nM.
On to `C[C@H]1COCCN1c1nc(-c2ccc(NC(=O)NC[C@H](O)CO)cc2)nc2c1CCC1(CC1)O2` [Example 68, 1-((S)-2,3-dihydroxypropyl)-3-(4-(4′-((S)-3-methylmorpholino)-5′,6′-dihydrospiro[cyclopropane-1,7′-pyrano[2,3-d]pyrimidine]-2′-yl)phenyl)urea], for which, in test [1], the Ki was determined as 3 nM. Besides, in the test on PC3 cells (setting [2]), the concentration for a half-maximal effect (EC50) worked out at 804 nM.
Turning to `CC1(C)OCc2c(N3CCOCC3)nc(-c3ccc(N)nc3)nc21` [Example 102, 5-(7,7-dimethyl-4-morpholino-5,7-dihydrofuro[3,4-d]pyrimidin-2-yl)pyridin-2-amine], the Ki in test [1] stood at 17 nM. In the test with PC3 cells (setting [2]), this compound displayed an EC50 of 159 nM.
For `C[C@H]1COCCN1c1nc(-c2ccc(NC(=O)NCCO)cc2)nc2c1COCC2` [Example 24, (S)-1-(2-hydroxyethyl)-3-(4-(4-(3-methylmorpholino)-7,8-dihydro-5H-pyrano[4,3-d]pyrimidin-2-yl)phenyl)urea] the same measures were 3 nM and 541 nM.
The matching figures for `C[C@H]1COCCN1c1nc(-c2ccc3oc(N)nc3c2)nc2c1COC2(C)C` [Example 123, (S)-5-(7,7-dimethyl-4-(3-methylmorpholino)-5,7-dihydrofuro[3,4-d]pyrimidin-2-yl)benzo[d]oxazol-2-amine]: 43 nM and 302 nM.
For the compound `CCNC(=O)Nc1ccc(-c2nc3c(c(N4[C@@H]5CC[C@H]4COC5)n2)CCCO3)cc1` [1-(4-(4-((1R,5S)-3-oxa-8-azabicyclo[3.2.1]octan-8-yl)-6,7-dihydro-5H-pyrano[2,3-d]pyrimidin-2-yl)phenyl)-3-ethylurea], the inhibition constant Ki in test [1] was 1 nM. In the test with PC3 cells (setting [2]), the EC50 worked out at 108 nM.
As to `C[C@H]1COCCN1c1nc(-c2ccc(NC(=O)NCCC#N)cc2)nc2c1CCC1(CC1)O2` [Example 66, (S)-1-(2-cyanoethyl)-3-(4-(4′-(3-methylmorpholino)-5′,6′-dihydrospiro[cyclopropane-1,7′-pyrano[2,3-d]pyrimidine]-2′-yl)phenyl)urea], in test [1], the Ki worked out at 2 nM. This compound also had an EC50 in the test on PC3 cells (setting [2]) of 99 nM.
The matching figures for `O=C(Nc1ccc(-c2nc3c(c(N4CCOCC4)n2)CCC2(CC2)O3)cc1)NC1COC1` [Example 43, 1-(4-(4′-morpholino-5′,6′-dihydrospiro[cyclopropane-1,7′-pyrano[2,3-d]pyrimidine]-2′-yl)phenyl)-3-(oxetan-3-yl)urea]: 6 nM and 392 nM.
As to `CCCC1(C)OCc2c(N3CCOC[C@@H]3C)nc(-c3ccc(NC(=O)NCC)cc3)nc21` (stereo partly drawn) [Example 83, 1-ethyl-3-(4-(7-methyl-4-((S)-3-methylmorpholino)-7-propyl-5,7-dihydrofuro[3,4-d]pyrimidin-2-yl)phenyl)urea], the Ki in test [1] was found to be 2 nM. The EC50 with PC3 cells (setting [2]) was determined as 84 nM.
For `CCNC(=O)Nc1ccc(-c2nc3c(c(N4CCOC[C@@H]4C)n2)COC3)cc1` [Example 96, (S)-1-ethyl-3-(4-(4-(3-methylmorpholino)-5,7-dihydrofuro[3,4-d]pyrimidin-2-yl)phenyl)urea] the same measures were 9 nM and 28 nM.
In the case of `COCC[C@]1(C)OCc2c(N3CCOC[C@@H]3C)nc(-c3ccc4nc(N)oc4c3)nc21` [Example 112 hg^1], the Ki in test [1] is 255 nM and 410 nM. The compound further came in with an EC50 in the test on PC3 cells (setting [2]) of 671 nM.
On to `C[C@H]1COCCN1c1nc(-c2ccc(Nc3nccc(=O)[nH]3)cc2)nc2c1CCC1(CC1)O2` [Example 55, (S)-2-(4-(4′-(3-methylmorpholino)-5′,6′-dihydrospiro[cyclopropane-1,7′-pyrano[2,3-d]pyrimidine]-2′-yl)phenylamino)pyrimidin-4(3H)-one], for which, in test [1], the Ki was determined as 0.2 nM. Moreover, the EC50 in the test on PC3 cells (setting [2]) turned out to be 15 nM.
For `C[C@H]1COCCN1c1nc(-c2ccc(NC(=O)Nc3cnn(C)c3)cc2)nc2c1CCCO2` [Example 31, (S)-1-(1-methyl-1H-pyrazol-4-yl)-3-(4-(4-(3-methylmorpholino)-6,7-dihydro-5H-pyrano[2,3-d]pyrimidin-2-yl)phenyl)urea] the same measures were 2 nM and 57 nM.
For `C[C@H]1COCCN1c1nc(-c2ccc(Nc3nccc(=O)[nH]3)cc2)nc2c1CCCO2` [Example 34, (S)-2-(4-(4-(3-methylmorpholino)-6,7-dihydro-5H-pyrano[2,3-d]pyrimidin-2-yl)phenylamino)pyrimidin-4(3H)-one], the Ki in test [1] was 1 nM. In the test on PC3 cells (setting [2]), this compound displayed an EC50 of 45 nM.
For `CCNC(=O)Nc1ccc(-c2nc(N3CCOC[C@@H]3C)c3c(n2)C(C)(CCn2ccnc2C)OC3)cc1` (single isomer, unassigned) [Example 81 et (S)] the same measures were 7 nM and 402 nM.

The record behind these values is patent US20100331305A1, “OXO-HETEROCYCLE FUSED PYRIMIDINE COMPOUNDS, COMPOSITIONS AND METHODS OF USE” (Genentech, Inc., priority 2009, published 2010).
